From patent US20170166555A1, “FUNCTIONALISED AND SUBSTITUTED INDOLES AS ANTI-CANCER AGENTS” (Novogen Limited, priority 2013, published 2017)
Read-outs that look alike come from different tables or passages of the source.

Assays:
Test in all cases: Anti-proliferative assay, cell-titre luminescent reagent, 72 h (GVK-BIO)
Type in all cases: cell-based
[1] = system: SK-N-SH neuroblastoma cells
Method: (§1) The ability of compounds 4001, 4002, 4008, 4010, 4011, 4013-4015, 4018, 4026, 4045-4113 and 4115-4127 to inhibit the proliferation of cancer cells representative of neuroblastoma, melanoma, prostate cancer, colorectal cancer, non-small cell lung carcinoma, and triple negative breast cancer was assessed. These studies were conducted by contract research (GVK-BIO). Briefly, a pre-determined number of cells as calculated from cell growth assays for each of the cell lines employed were seeded into their respective culture medium (using ATCC culture parameters—http://www.atcc.org) and cultured for 24 h at 37° C. and 5% CO2 in 96-well culture plates. Once attached, each cell line was then exposed to various concentrations of each respective analogue (30, 3, 0.3 and 0.03 μM for compounds in Tables 2, 3 and 4; 30, 10, 3, 1, 0.3 and 0.1 μM for compounds in Table 5), cultured for a further 72 h and exposed to cell-titre luminescent reagent (100 μL/well) for a further 30 min). Luminescence was captured using an EnVision multilabel reader and the data for each analogue concentration compared against no treatment control. For compounds in Tables 2-4, semi-log plots of Percent of Control versus concentration were prepared and IC50 determined using linear regression analysis. For compounds in Table 5, cell viability was normalized to control (vehicle alone) and dose-response curves, and half maximal effective concentration (EC50) values were determined using Graph Pad Prism 6 (nonlinear regression sigmoidal dose-response variable slope).

[2] = system: PC3 prostate cancer cells
Method: as §1

[3] = system: SK-Mel-28 melanoma cells
Method: as §1

[4] = system: CaCo2 colorectal cancer cells
Method: as §1

[5] = system: A549 non-small cell lung carcinoma cells; details: read-out: IC50/μM Lung (NSLC) A549
Method: as §1

[6] = system: MDA-MB-231 triple negative breast cancer cells
Method: as §1

[7] = system: DU145 prostate cancer cells
Method: as §1

[8] = Homo sapiens, SK-N-SH, 30, 10, 3, 1, 0.3 and 0.1 μM, nonlinear regression (Table 5)
[9] = 30, 10, 3, 1, 0.3 and 0.1 μM, nonlinear regression (Table 5)
[10] = Homo sapiens, SK-MEL-28, 72 h, 30, 10, 3, 1, 0.3 and 0.1 μM, nonlinear regression (Table 5)
[11] = Homo sapiens, Caco-2, 72 h, 30, 10, 3, 1, 0.3 and 0.1 μM, nonlinear regression (Table 5)
[12] = Homo sapiens, A549, 72 h, 30, 10, 3, 1, 0.3 and 0.1 μM, nonlinear regression (Table 5)
[13] = Homo sapiens, MDA-MB-231, 72 h, 30, 10, 3, 1, 0.3 and 0.1 μM, nonlinear regression (Table 5)
[14] = Homo sapiens, DU-145, 72 h, 30, 10, 3, 1, 0.3 and 0.1 μM, nonlinear regression (Table 5)
[15] = Homo sapiens, SK-N-SH, 30, 3, 0.3 and 0.03 μM, linear regression (Tables 2-4)
[16] = 30, 3, 0.3 and 0.03 μM, linear regression (Tables 2-4)
[17] = Homo sapiens, SK-MEL-28, 72 h, 30, 3, 0.3 and 0.03 μM, linear regression (Tables 2-4)
[18] = Homo sapiens, Caco-2, 72 h, 30, 3, 0.3 and 0.03 μM, linear regression (Tables 2-4)
[19] = Homo sapiens, A549, 72 h, 30, 3, 0.3 and 0.03 μM, linear regression (Tables 2-4)
[20] = Homo sapiens, MDA-MB-231, 72 h, 30, 3, 0.3 and 0.03 μM, linear regression (Tables 2-4)
[21] = Homo sapiens, DU-145, 72 h, 30, 3, 0.3 and 0.03 μM, linear regression (Tables 2-4)

SMILES | IC50 [1, 8] [µM] | IC50 [2, 9] [µM] | IC50 [3, 10] [µM] | IC50 [4, 11] [µM] | IC50 [5, 12] [µM] | IC50 [6, 13] [µM] | IC50 [7, 14] [µM] | IC50 [1, 15] [µM] | IC50 [2, 16] [µM] | IC50 [3, 17] [µM] | IC50 [4, 18] [µM] | IC50 [5, 19] [µM] | IC50 [6, 20] [µM] | IC50 [7, 21] [µM] | IC50 [1, 16] [µM] | IC50 [3, 16] [µM] | IC50 [4, 16] [µM] | IC50 [5, 16] [µM] | IC50 [6, 16] [µM] | IC50 [7, 16] [µM]
Cc1c(C)n(CCCN(C)C)c2ccc(Cc3ccc(C(=O)Nc4ccc(F)cc4)cc3)cc12 [Compound 4082, 4-((1-(3-(dimethylamino)propyl)-2,3-dimethyl-1H-indol-5-yl)methyl)-N-(4-fluorophenyl)benzamide] | 4.8 | 3.9 | 4.6 | 4 | 4.9 | 4.2 | 2.6 |  |  |  |  |  |  |  |  |  |  |  |  | 
COc1ccc(NC(=O)c2ccc(Cc3ccc4c(c3)c(C)c(C)n4CCCN(C)C)cc2)cc1 [Compound 4083, 4-((1-(3-(dimethylamino)propyl)-2,3-dimethyl-1H-indol-5-yl)methyl)-N-(4-methoxyphenyl)benzamide] | 3.3 | 13.2 | 4.7 | 11.9 | 11.2 | 13.1 | 5.1 |  |  |  |  |  |  |  |  |  |  |  |  | 
Cc1c(C)n(CCCN(C)C)c2ccc(Cc3ccc(C(=O)Nc4ccc5c(c4)OCO5)cc3)cc12 [Compound 4084, N-(benzo[d][1,3]dioxol-5-yl)-4-((1-(3-(dimethylamino)propyl)-2,3-dimethyl-1H-indol-5-yl)methyl)benzamide] | 10.6 | 3.5 | 5.5 | 7.1 | 6 | 6.5 | 4.8 |  |  |  |  |  |  |  |  |  |  |  |  | 
Cc1c(C)n(CCCN(C)C)c2ccc(Cc3ccc(C(=O)Nc4cccc(F)c4)cc3)cc12 [Compound 4085, 4-((1-(3-(dimethylamino)propyl)-2,3-dimethyl-1H-indol-5-yl)methyl)-N-(3-fluorophenyl)benzamide] |  |  |  |  |  |  |  | 9.8 | 10.1 | 10.5 | 10.9 | 10.1 | 11.2 | 11 |  |  |  |  |  | 
COc1cccc(NC(=O)c2ccc(Cc3ccc4c(c3)c(C)c(C)n4CCCN(C)C)cc2)c1 [Compound 4086, 4-((1-(3-(dimethylamino)propyl)-2,3-dimethyl-1H-indol-5-yl)methyl)-N-(3-methoxyphenyl)benzamide] | 5.7 | 4.8 | 5.2 | 7.6 | 5 | 6.2 | 4.3 |  |  |  |  |  |  |  |  |  |  |  |  | 
Cc1c(C)n(CCCN(C)C)c2ccc(Cc3ccc(C(=O)Nc4ccccc4)cc3)cc12 [Compound 4087, 4-((1-(3-(dimethylamino)propyl)-2,3-dimethyl-1H-indol-5-yl)methyl)-N-phenylbenzamide] | 5.6 | 7.4 | 4.8 | 23.1 | 8.9 | 7.5 | 7.1 |  |  |  |  |  |  |  |  |  |  |  |  | 
COc1ccc(NC(=O)c2ccc(Oc3ccc4c(c3)c(C)c(C)n4CCCN(C)C)cc2)cc1 [Compound 4094, 4-((1-(3-(dimethylamino)propyl)-2,3-dimethyl-1H-indol-5-yl)oxy)-N-(4-methoxyphenyl)benzamide] | 1.8 | 1.5 | 3.8 | 4.2 | 2.7 | 1.7 | 2 |  |  |  |  |  |  |  |  |  |  |  |  | 
Cc1c(C)n(CCCN(C)C)c2ccc(Oc3ccc(C(=O)Nc4ccc5c(c4)OCO5)cc3)cc12 [Compound 4095, N-(benzo[d][1,3]dioxol-5-yl)-4-((1-(3-(dimethylamino)propyl)-2,3-dimethyl-1H-indol-5-yl)oxy)benzamide] |  |  |  |  |  |  |  | 1.5 | 1.4 | 2.3 | 2.3 | 1 | 1.6 | 1.2 |  |  |  |  |  | 
Cc1c(C)n(CCCN(C)C)c2ccc(Oc3ccc(C(=O)Nc4cccc(F)c4)cc3)cc12 [Compound 4096, 4-((1-(3-(dimethylamino)propyl)-2,3-dimethyl-1H-indol-5-yl)oxy)-N-(3-fluorophenyl)benzamide] |  |  |  |  |  |  |  | 3.7 | 2.5 | 3.5 | 2.7 | 2.9 | 2.6 | 3.3 |  |  |  |  |  | 
Cc1c(C)n(CCCN(C)C)c2ccc(Oc3ccc(C(=O)Nc4ccccc4)cc3)cc12 [Compound 4098, 4-((1-(3-(dimethylamino)propyl)-2,3-dimethyl-1H-indol-5-yl)oxy)-N-phenylbenzamide] |  |  |  |  |  |  |  | 3.4 | 3.3 | 3.8 | 4 | 2.9 | 3.7 | 3.4 |  |  |  |  |  | 
CN(C)CCCn1ccc2cc(Nc3cccc(C(=O)Nc4ccc(F)cc4)c3)ccc21 [Compound 4099, 3-((1-(3-(dimethylamino)propyl)-1H-indol-5-yl)amino)-N-(4-fluorophenyl)benzamide] |  |  |  |  |  |  |  |  | 4.9 |  |  |  |  |  | 3.9 | 3.7 | > 30 | 4.1 | 3.4 | 5.5
COc1ccc(NC(=O)c2ccc(Nc3ccc4c(ccn4CCCN(C)C)c3)cc2)cc1 [Compound 4100, 4-((1-(3-(dimethylamino)propyl)-1H-indol-5-yl)amino)-N-(4-methoxyphenyl)benzamide] |  |  |  |  |  |  |  | 3.6 | > 30 | 2.5 | > 30 | 4.5 | 5.2 | > 30 |  |  |  |  |  | 

Second part, the molecule after the results:

IC50 [1, 8] [µM] | IC50 [2, 9] [µM] | IC50 [3, 10] [µM] | IC50 [4, 11] [µM] | IC50 [5, 12] [µM] | IC50 [6, 13] [µM] | IC50 [7, 14] [µM] | IC50 [1, 15] [µM] | IC50 [2, 16] [µM] | IC50 [3, 17] [µM] | IC50 [4, 18] [µM] | IC50 [5, 19] [µM] | IC50 [6, 20] [µM] | IC50 [7, 21] [µM] | IC50 [1, 16] [µM] | IC50 [3, 16] [µM] | IC50 [4, 16] [µM] | IC50 [5, 16] [µM] | IC50 [6, 16] [µM] | IC50 [7, 16] [µM] | SMILES
 |  |  |  |  |  |  | 3.4 | 3.5 | 4.3 | 4.1 | 3.4 | 3.8 | 3.3 |  |  |  |  |  |  | CN(C)CCCn1ccc2cc(Oc3ccc(C(=O)Nc4ccc(F)cc4)cc3)ccc21 [Compound 4088, 4-((1-(3-(dimethylamino)propyl)-1H-indol-5-yl)oxy)-N-(4-fluorophenyl)benzamide]
4.4 | 4.4 | 4.3 | 13.2 | 7.7 | 5.2 | 4.4 |  |  |  |  |  |  |  |  |  |  |  |  |  | COc1ccc(NC(=O)c2ccc(Oc3ccc4c(ccn4CCCN(C)C)c3)cc2)cc1 [Compound 4089, 4-((1-(3-(dimethylamino)propyl)-1H-indol-5-yl)oxy)-N-(4-methoxyphenyl)benzamide]
6.3 | 2.5 | 7.2 | 5.3 | 8.4 | 9.6 | 4.6 |  |  |  |  |  |  |  |  |  |  |  |  |  | CN(C)CCCn1ccc2cc(Oc3ccc(C(=O)Nc4ccc5c(c4)OCO5)cc3)ccc21 [Compound 4090, N-(benzo[d][1,3]dioxol-5-yl)-4-((1-(3-(dimethylamino)propyl)-1H-indol-5-yl)oxy)benzamide]
9.7 | 19.6 | 15.4 | 10.2 | 9.5 | 28.9 | 10.6 |  |  |  |  |  |  |  |  |  |  |  |  |  | CN(C)CCCn1ccc2cc(Oc3ccc(C(=O)Nc4cccc(F)c4)cc3)ccc21 [Compound 4091, 4-((1-(3-(dimethylamino)propyl)-1H-indol-5-yl)oxy)-N-(3-fluorophenyl)benzamide]
13.8 | 38.3 | 13.3 | 17.1 | 8.3 | 22.6 | 16.7 |  |  |  |  |  |  |  |  |  |  |  |  |  | COc1cccc(NC(=O)c2ccc(Oc3ccc4c(ccn4CCCN(C)C)c3)cc2)c1 [Compound 4092, 4-((1-(3-(dimethylamino)propyl)-1H-indol-5-yl)oxy)-N-(3-methoxyphenyl)benzamide]
 |  |  |  |  |  |  | 2.9 | 4.9 | 3.6 | 3.5 | 3 | 2.5 | 3.5 |  |  |  |  |  |  | COc1cccc(NC(=O)c2ccc(Oc3ccc4c(c3)c(C)c(C)n4CCCN(C)C)cc2)c1 [Compound 4097, 4-((1-(3-(dimethylamino)propyl)-2,3-dimethyl-1H-indol-5-yl)oxy)-N-(3-methoxyphenyl)benzamide]
